In patent US9642897B2, “Treatment of bone diseases” (THE UNIVERSITY OF SYDNEY, priority 2011, dated 2017):
“Also recorded” adds a separate entry of the source.

Legend:
RUNX2, OCN and OPN = assay: Osteogenic gene expression (RUNX2, OCN, OPN) in differentiating MSC; format: cell-based, human; conditions: for relative gene expression of RUNX2, OCN and OPN: differentiating MSC
Description: (§1) Subsequently, the effect of chemical inhibition/stimulation of the intermediate and end products of kynurenine activation on osteogenic differentiating MSC was then characterised.
These compounds were added to the MSC media on day one of differentiation. […] Media was changed every three days. […]

[1] = test system: gut-derived serotonin (GDS); conditions: Yadav et al. (2010); cited from earlier work
[2] = test system: mesenchymal stem cells (MSC); assay: Mineralization (alizarin red staining) of osteogenic differentiating MSC; format: cell-based, human
Description: (§2) Human mesenchymal stem cells (MSC) (BioWhittaker, Walkersville, Md., USA) were plated at a density of 5×10^5 cells per well in 150 cm^2 dishes containing MSC growth medium (GM) (BioWhittaker, Walkersville, Md., USA) with 10% fetal calf serum (FCS) and incubated at 37° C. After the cells reached 60% confluence, media was replaced with either GM or osteoblastogenesis induction media (OIM) (prepared with MSCGM, 10% FCS, […] dexamethasone, 10 mmol/L β glycerol phosphate and 50 μg/mL ascorbic acid) for 21 days. Media was changed every three days. Media obtained at the beginning of the 1st, 2nd and 3rd wk of differentiation as well as conditioned media were collected for measurement of IFNγ. Concentrations of IFNγ in the conditioned media were measured from both GM and OM treated cells using Human […] DuoSet ELISA Development Kit (R&D Systems, Minneapolis, Mich., USA). To compare between the osteogenic and the immune effect of IFNγ, Jurkat cells and human T lymphocytes were plated at a density of 5×10^5 cells per well in 150 cm^2 dishes containing RPMI media.
as §1
These compounds were added to the MSC media on day one of differentiation. Cells were treated for […]. Media was changed every three days. After three weeks of treatment, osteoblastogenesis and changes in osteogenic genes were quantified as described above.

[3] = test system: bone marrow stromal cells (BMSC) from IDO-1 KO and WT mice; assay: Osteogenic differentiation of BMSC from IDO-1 KO and WT mice (alizarin red); format: cell-based; conditions: vs vehicle
Description: One side tibiae from 9-month-old IDO-1^−/− and IDO-1^+/+ mice (n=6 per group) were flushed using a 21-gauge needle attached to a 10 ml syringe filled with Dulbecco's modified Eagle's medium (DME) (GIBCO BRL, Gaithersburg, Md., USA). The bone marrow cells were filtered through a cell strainer with a 70-micron nylon mesh (BD Bioscience, Bedford, Mass., USA) and plated in 10 cm^2 tissue culture dishes. The cells were incubated in growth medium at 37° C. with 5% humidified CO2 and isolated by their adherence to tissue culture plastic. Medium was aspirated and replaced with fresh medium every 2 to 3 days to remove non-adherent cells. The adherent MSC were grown to confluency for about 7 days and defined as MSC at passage 0, harvested with 0.25% trypsin and 1 mM EDTA for 5 min at 37° C., diluted 1:3 in growth medium, plated and grown to confluency for further expansion. After 2nd and 3rd passages, MSC were used for subsequent experiments.
To induce differentiation, a total of 10^4 cells were diluted in osteogenic medium and plated in 24 dishes per group in the presence or absence of either quinolinic or picolinic acid. Media was aspirated and replaced with fresh osteogenic medium every 3 days. At 21 days, medium was removed and cultures were fixed in 10% v/v formol/saline solution for 5 min. Cultures were stained with Alizarin Red, which was then extracted and quantified at 570 nm.

IDO-1 gene expression [4] = assay: IDO-1 gene expression in osteogenic differentiating MSC (cDNA array / real time PCR); format: cell-based, human; conditions: for increase in IDO-1 expression: differentiating osteoblasts
Description: as §2
Cells were treated with either IFNγ (100 nM) or vehicle for two weeks. At week 2, total RNA was extracted from treated MSC, Jurkat T lymphocytes using an Easy-Kit mini prep (Qiagen, Valencia, Calif., USA). Generation of cDNA, fluorescent labeling, hybridization to the gene chip and data analysis were performed by the Genomics Laboratory at Ramacciotti Institute (Sydney, Australia). 12,000 human genes were examined and expressed sequences tags (ESTs) on the array Human Genome U95A (Affymetrix, Inc. Santa Clara, Calif., USA) and analyzed the results using the MicroDB™ Software (Affymetrix, Inc. Santa Clara, Calif., USA). Expression values of the differentiated and non-differentiated MSC and between MSC vs. Jurkat cells and T lymphocytes were compared using Student's t test. Genes with significant changes were then grouped depending on their known function. The biological function of each gene product was obtained from literature searches in medical databases. This experiment was repeated twice and significant changes in gene expression determined by the method of biological duplicates.
A cDNA gene array analysis was performed in MSC induced to differentiate into osteoblasts using osteogenic media for 7 days while being treated with an anabolic dose of IFNγ (100 nM) in vitro. A comparison of was made of cDNA data obtained from differentiating MSC, human primary T-lymphocytes and Jurkat cells either untreated or treated with IFNγ (FIG. 1). The aims of this approach were not only to characterise the osteogenic effect of IFNγ on osteogenic differentiating MSC, but also to compare the osteogenic vs. the immunogenic profile of IFNγ. […]

[5] = rats; cited from earlier work
TPH-1 gene expression = TPH-1 gene expression in IFNγ-treated immune cells (Jurkat cells, T lymphocytes); format: cell-based, human; conditions: immune cells treated with IFNγ
Description: as §2, with “To compare between the osteogenic and the immune effect of IFNγ, Jurkat cells and human T lymphocytes were plated at a density of 5×10^5 cells per well in 150 cm^2 dishes containing RPMI media.” left out
(§3) Cells were treated with either IFNγ (100 nM) or vehicle for two weeks. […] 12,000 human genes were examined and expressed sequences tags (ESTs) on the array Human Genome U95A (Affymetrix, Inc. Santa Clara, Calif., USA) and analyzed the results using the MicroDB™ Software (Affymetrix, Inc. Santa Clara, Calif., USA). […] This experiment was repeated twice and significant changes in gene expression determined by the method of biological duplicates. […]

IDO-1 [6] = assay: Kynurenine/tryptophan ratio by HPLC in differentiating MSC; format: cell-based, human; conditions: MSC treated with IFNγ
gut derived serotonin = assay: Gut derived serotonin (GDS) in gut of IFNγ-treated mice; format: in vivo, C57BL/6 mice; conditions: IFNγ 2,000 IU, 3 times a week for 6 weeks
Description: (§4) Animals were purchased from Jackson Laboratories (Bar Harbor, Me., USA). 8-week-old virgin female C57BL/6 mice (Charles River Laboratories, Quebec, Canada) were used to study the effect of exogenous administration of IFN-γ on bone and gut expression of IDO-1 and TPH-1. Bilateral ovariectomies (OVX) were performed under general anesthesia. Another group of animals was sham-operated (SHAM), in which ovaries were exteriorized but replaced intact. Two weeks after surgery, mice (OVX and SHAM) received intraperitoneal injections of 2000 IU of IFN-γ (R&D Systems, Inc., Minneapolis, Minn., USA) or vehicle (PBS) three times weekly for a total of 6 weeks. Mice were housed in cages in a limited-access room. Animal husbandry adhered to Canadian Council on Animal Care Standards, and all protocols were approved by the McGill University Health Center Animal Care Utilization Committee.
One side femur and proximal gut from each animal in each group was removed at the time of euthanization. Bone was fixed in 70% ethanol, dehydrated, and embedded undecalcified in methyl methacrylate (J-T Baker, Phillipsburg, N.J., USA). At 50-μm intervals, longitudinal sections 5- and 8-μm thick were cut using a Polycut-E microtome (Reichert-Jung Leica, Heerbrugg, Switzerland). Gut was fixed and embedded in paraffin for future analysis. Gut sections were obtained as described above.

TPH-1 = assay: Immunohistochemistry of TPH-1 in gut and bone of IFNγ-treated mice; format: in vivo, C57BL/6 mice; conditions: IFNγ 2,000 IU, 3 times a week for 6 weeks
Description: as §4, with “Committee. […]” for “Committee.”
(§5) For immunohistochemistry, gut and bone sections were incubated overnight at 4° C. with a goat polyclonal antibody IgG against either IDO-1 or TPH-1 (Santacruz Biotechnology Inc. Santa Cruz Calif., USA), Primary antibody was detected by incubation with an anti-goat IgG secondary antibody conjugated with horseradish peroxidase (1:300 in BSA 1%, Sigma-Aldrich, St. Louis, Mo., USA)]. […] Photographs were taken under an Olympus fluorescence microscope controlled by an IPLab system. […]

IDO-1 gene expression [7] = assay: IDO-1 gene expression in IFNγ-treated immune cells (Jurkat cells, T lymphocytes); format: cell-based, human; conditions: immune cells treated with IFNγ
Description: as §2, with “To compare between the osteogenic and the immune effect of IFNγ, Jurkat cells and human T lymphocytes were plated at a density of 5×10^5 cells per well in 150 cm^2 dishes containing RPMI media.” left out
as §3

serotonin = assay: Serotonin concentrations in MSC supernatants (ELISA); format: cell-based, human; conditions: IFNγ treated vs untreated cells
Excerpt: In addition, there was no difference in the serotonin concentrations (measured using ELISA) in the supernatants obtained from osteoblastogenesis induction media (OIM)- and IFNγ-treated vs. untreated cells. […] This effect is independent of serotonin concentration in the media.

IDO-1 [8] = assay: Immunohistochemistry of IDO-1 in gut and bone of IFNγ-treated mice; format: in vivo, C57BL/6 mice; conditions: IFNγ 2,000 IU, 3 times a week for 6 weeks
Description: as §4, with “Committee. […]” for “Committee.”
as §5

[9] = 1000 nM quinolinic acid, 14 days, vs untreated cells

## Nc1ccccc1C(=O)CC(N)C(=O)O [L-kynurenine, 2-amino-4-(2-aminophenyl)-4-oxo-butanoic acid, reference compound]
RUNX2, OCN and OPN
  relative gene expression of RUNX2, OCN and OPN: not

## Nc1nc(OC(c2ccc(-c3cccc(F)c3)cc2)C(F)(F)F)cc(-c2ccc(C[C@H](N)C(=O)O)cc2)n1 (stereo partly shown) [LP533401]
[1]
  bone formation / osteoporosis in OVX mice: stimulates bone formation and recues OVX mice from osteoporosis

## O=C(O)c1cccnc1C(=O)O [QA, 2,3-Pyridinedicarboxylic acid]
[2]; MSC in OIM, 2 weeks
  osteoblastogenesis / mineralisation (alizarin red): accelerated mineralisation; also recorded: stimulate osteoblastogenesis
[3]
  mineralisation (alizarin red staining): higher levels of mineralisation
RUNX2, OCN and OPN; [9]
  relative expression (RE) RUNX2: 3 fold
  relative expression (RE) osteopontin: 6 fold
RUNX2, OCN and OPN
  relative gene expression of RUNX2, OCN and OPN: increased

## CN[C@H](Cc1c[nH]c2ccccc12)C(=O)O [methyl-D-tryptophan, reference compound]
[2]; inhibition of IDO-1
  mineralization measured by alizarin red: significant decrease
IDO-1 gene expression [4]; day 14 of differentiation, in the presence of inhibitor, vs control
  RE of IDO-1: 0.02
RUNX2, OCN and OPN; with IDO-1 inhibition
  osteogenic genes expression: reduced

## CC[C@H](C)[C@H](NC(=O)[C@H](CCC(=O)O)NC(=O)[C@H](CO)NC(=O)[C@@H](NC(=O)[C@@H](N)CO)C(C)C)C(=O)N[C@@H](CCC(N)=O)C(=O)N[C@@H](CC(C)C)C(=O)N[C@@H](CCSC)C(=O)N[C@@H](Cc1cnc[nH]1)C(=O)N[C@@H](CC(N)=O)C(=O)N[C@@H](CC(C)C)C(=O)NCC(=O)N[C@@H](CCCCN)C(=O)N[C@@H](Cc1cnc[nH]1)C(=O)N[C@@H](CC(C)C)C(=O)N[C@@H](CC(N)=O)C(=O)N[C@@H](CO)C(=O)N[C@@H](CCSC)C(=O)N[C@@H](CCC(=O)O)C(=O)N[C@@H](CCCN=C(N)N)C(=O)N[C@H](C(=O)N[C@@H](CCC(=O)O)C(=O)N[C@@H](Cc1c[nH]c2ccccc12)C(=O)N[C@@H](CC(C)C)C(=O)N[C@@H](CCCN=C(N)N)C(=O)N[C@@H](CCCCN)C(=O)N[C@@H](CCCCN)C(=O)N[C@@H](CC(C)C)C(=O)N[C@@H](CCC(N)=O)C(=O)N[C@@H](CC(=O)O)C(=O)N[C@H](C(=O)N[C@@H](Cc1cnc[nH]1)C(=O)N[C@@H](CC(N)=O)C(=O)N[C@@H](Cc1ccccc1)C(=O)O)C(C)C)C(C)C [teriparatide]
[5]
  tumour growth: cause malignant tumour growth (osteogenic carcinoma)

## IFNγ: interferon gamma, stimulator of IDO-1
[2]; IFNγ 100 ng/ml, one week of osteogenic differentiation, vs vehicle
  mineralization (alizarin red staining): higher levels of mineralization
IDO-1 gene expression [4]; IFNγ 100 nM, differentiating MSC in osteogenic media 7 days, vs untreated MSC and immune cells
  IDO-1 gene expression: 12 fold
IDO-1 gene expression [4]; 14th day
  increase in IDO-1 expression: 13 fold
IDO-1 gene expression [4]; after 7 days
  increase in IDO-1 expression: 36 fold
TPH-1 gene expression
  TPH-1 gene expression: high levels
IDO-1 [6]
  kynurenine/tryptophan ratio (tryptophan degradation): higher kynurenine/tryptophan ratio
Gut derived serotonin
  GDS in the gut: remains unaltered
TPH-1
  expression of TPH-1 in gut and bone: remains unaltered
IDO-1 gene expression [7]
  IDO-1 gene expression: without affecting
serotonin
  serotonin concentrations in the supernatants: No changes
IDO-1 [8]
  levels of IDO-1 in gut and bone marrow: higher levels of IDO-1
